Measurements published in US20140288102A1, “PREVENTION OF RECURRENCES OF URETHRAL STRICTURES FOLLOWING CONVENTIONAL THERAPY” (priority 2007, published 2014).
Where “and” joins values, the source holds several entries; their conditions need not be identical. Equal values may be shown once. Entries after “also recorded” stand apart in the source; their conditions may differ.

Assays:
[1] = system: New Zealand male rabbits; assay: Prevention of the onset of urethral strictures after electrocoagulation of the bulbar urethra (Example 1); assay type: in vivo, rabbit
Description: Near-circumferential, 15 mm long electrocoagulation of the bulbar urethra was performed endoscopically on 20 New Zealand male rabbits using a pediatric resectoscope and a round-ended electrocautery. The rabbits were randomized into 2 groups of 10 animals each. The first group received a diet containing 10 mg/kg of Halofuginone initiated 4 days before electrocoagulation and continued for 3 weeks. The second group received a standard chow, free of Halofuginone. Three weeks after electrocoagulation, the rabbits were examined by video urethrocystoscopy and retrograde urethrocystography and subsequently sacrificed for histological examination. The urethra was removed in one piece and fixed in 10% buffered formaldehyde. The histological examination was performed after the specimens were embedded in paraffin and stained with Masson trichrome, hematoxylin-eosin, and Sirius Red (IMEB, Inc., Chicago, Ill.) in order to evaluate fibrosis. With the latter staining method, collagen appears in red.

[2] = system: New Zealand male rabbits; assay: Prevention of the recurrence of urethral strictures following endoscopic internal urethrotomy (Example 2); assay type: in vivo, rabbit
Description: Near-circumferential, 15 mm long electrocoagulation of the bulbar urethra was performed endoscopically on 48 New Zealand male rabbits using a pediatric resectoscope and a round-ended electrocautery. Three weeks after electrocoagulation, the urethral strictures were evaluated using video urethrocystoscopy and retrograde urethrocystography. […] The urethral lumen was reduced by 70-95% (mean 88.5%). The obtained strictures were 7 to 19 mm in length (mean 11.7). Endoscopic internal urethrotomy was performed on all surviving rabbits using a cold knife, under visual guidance with a 0.028-inch diameter endoscopic guidewire. A single deep incision was made at the 12 o'clock position in all animals. The rabbits were subsequently randomized into 2 groups: one study group receiving Halofuginone for 10 weeks starting on the day of the urethrotomy, and one control group without Halofuginone. The study group was fed on a diet containing 10 mg/kg of Halofuginone, whereas the control group received a normal, Halofuginone-free diet. The rabbits were then monitored and evaluated for urethral strictures if any of the following signs appeared: decrease in 24-hour urine output, anorexia, worsening of general health status with palpable bladder distension. In the absence of any of these signs, the animals were systematically evaluated for urethral strictures 10 weeks after urethrotomy. This evaluation was performed using video urethrocystoscopy and retrograde urethrocystography. Thereafter, the rabbits were sacrificed for histological examination. The entire urethra was removed and fixed in 10% buffered formaldehyde. The histological examination was performed after the specimens had been embedded in paraffin and stained with Masson trichrome, hematoxylin-eosin, and Sirius Red (IMEB, Inc., Chicago, Ill.) in order to evaluate fibrosis. With the latter staining method, collagen appears in red.

[3] = the 2 treated rabbits with significant stricture, 3 weeks after electrocoagulation

## O=C(CC1NCCC[C@H]1O)Cn1cnc2cc(Br)c(Cl)cc2c1=O (stereo partly drawn) [Halofuginone]
[1]; 10 rabbits, diet containing 10 mg/kg Halofuginone from 4 days before electrocoagulation, continued 3 weeks, evaluated at 3 weeks, control 10 of 10, p<0.001
  Nr. of urethral strictures (rabbits with significant urethral stricture): 2
[1]; of 10 treated rabbits, 3 weeks after electrocoagulation
  number of rabbits with normal urethra: 6
[1]; [3]
  length of the significant strictures: 10 mm and 8 mm
  reduction in urethral lumen caliber in the significant strictures: 70% and 90%
[1]; treated rabbits without significant stricture
  histological study of the urethra (fibrosis): only focal alterations, with limited areas of fibrosis alternating with subnormal or normal urethral walls
[1]; two other treated rabbits, 3 weeks after electrocoagulation
  narrowing of the urethral lumen: less than 30%
[2]; a rabbit of the study group, 10 weeks after internal urethrotomy, FIG. 2B
  retrograde urethrocystogram of the bulbar urethra: no recurrent stricture was seen
[2]; diet containing 10 mg/kg Halofuginone for 10 weeks from day of urethrotomy, control 14/19, P 0.005
  Post-urethrotomy recurrent stricture, Nr./total Nr.: 5/18
[2]; diet containing 10 mg/kg Halofuginone for 10 weeks from day of urethrotomy, control 73, P 0.005
  Post-urethrotomy recurrent stricture (%): 27%
[2]; of 18 rabbits, control 2 of 19
  Nr. according to extent of histological fibrosis: Moderate to severe: 1
[2]; of 18 rabbits, control 5 of 19
  Nr. according to extent of histological fibrosis: Mild or absent: 13
[2]; of 18 rabbits, control 12 of 19
  Nr. according to extent of histological fibrosis: Severe: 4
[2]; rabbits with no recurrence of stricture, FIG. 3
  histological study of the site of the prior urethrotomy (fibrosis): no fibrosis or minimal fibrosis; also recorded: minimal fibrosis
[2]; recurrent strictures in Halofuginone group, control 11.4
  Post-urethrotomy recurrent stricture, average length: 7.2 mm
[2]; recurrent strictures in Halofuginone group, control 82.9
  Post-urethrotomy recurrent stricture, average reduction of lumen: 92%
[2]; study group
  number of rabbits with recurrent stricture diagnosed at the 10-week evaluation: 2
[2]; study group, 18 evaluable rabbits
  number of rabbits that developed no recurrence of urethral stricture: 13
[2]; study group, before the 10-week evaluation
  number of rabbits with recurrence suspected on clinical signs and confirmed radiologically and endoscopically: 3
